What was measured:
[1] = test system: VDRE reporter plasmid (IR nGRE element deleted); assay: Luciferase reporter assay in A549 cells, VDRE reporter without IR1 nGRE; type: cell-based, human; conditions: FA addition
Procedure: Luciferase reporter assay. A549 cells seeded on 24-well tissue culture plates overnight at 70% confluency were transfected with 100 ng pCMV β galactosidase, 200 ng pGL3 reporter plasmids and wherever indicated, with 600 ng pSG5 hVDR plasmid (Green et al., 1988) into each well and maintained in medium containing charcoal treated FCS. 24 hours post-transfection, medium was changed and different compounds were added to it for 6 hours. Final concentrations of the compounds are: FA, 500 nM; Dex or RU24858, 300 nM or 500 nM (wherever 300 nM Dex or RU was used, it is indicated in the figure, in all other cases, 500 nM concentration was used); active vitamin D3, 1 μM; IL-1β, 5 ng/ml; BAY 11-7082, 5 μM, JNK inhibitor II, 25 μM. Luciferase assay was carried out as instructed (Promega). Normalized values are reported as the mean±SEM; each value originates from at least three individual transfections with assays performed in duplicate. […]

[2] = test system: GPX3 (glutathione peroxidase 3) gene, (+)GRE; assay: GPX3 transcript levels in mouse ear epidermis after topical treatment (Q-RT-PCR); type: in vivo; conditions: WT mice, ears, topical FA, FIG. 10
Description: (§1) Mice. […] Real time PCR. Total RNA was reverse transcribed using hexamers, followed by Q-PCR, as reported (Li et al., 2005). The GC agonist fluocinolone acetonide (FA) was applied to ears of mice concomitantly treated with the “low-calcemic” Vitamin D3 (VitD3) analog MC903 (Calcipotriol; hereafter called MC) to trigger TSLP expression (Li et al., 2006). […] As expected, the expression of the GC-inducible GPX3 (glutathione peroxidase 3) gene which harbours a (+)GRE (Tuckermann et al., 1999) was enhanced by FA (FIG. 10) and inhibited by RU co-treatment, while FA or RU had no effect on MC-dependent expression of the CYP24A1 gene (a VitD3 target) (FIG. 10).

[3] = test system: IR nGRE (pGL3(VDRE) IR1 nGRE luciferase reporter); assay: Luciferase reporter assay in A549 cells, pGL3(VDRE) IR nGRE plasmids; type: cell-based, human
Procedure: Luciferase reporter assay. A549 cells seeded on 24-well tissue culture plates overnight at 70% confluency were transfected with 100 ng pCMV β galactosidase, 200 ng pGL3 reporter plasmids and wherever indicated, with 600 ng pSG5 hVDR plasmid (Green et al., 1988) into each well and maintained in medium containing charcoal treated FCS. 24 hours post-transfection, medium was changed and different compounds were added to it for 6 hours. […] Luciferase assay was carried out as instructed (Promega). Normalized values are reported as the mean±SEM; each value originates from at least three individual transfections with assays performed in duplicate.
To investigate whether additional DNA elements could be required to generate a repressing activity, the TSLP IR1 nGRE was inserted upstream of an enhancerless SV40 early promoter located 5′ to the luciferase coding sequence of pGL3 vector, A VDRE separated from the IR1 nGRE by a 314 bp-long DNA segment devoid of any known transregulator binding site (not shown) was inserted to generate a luciferase-expressing reporter plasmid (pGL3(VDRE) IR1 nGRE, FIG. 4), which was transfected into A549 cells, followed by addition of VitD3 and/or FA.
To investigate whether the 1 bp spacer between the inverted repeated motifs of TSLP IR1 nGRE was critical for its repressing function, pGL3-based luciferase plasmids containing the VDRE and TSLP nGRE motifs spaced by 0 to 5 bases (IR0 to IR5 nGREs) were transfected into A549 cells.

[4] = test system: CYP24A1 gene (a VitD3 target); assay: CYP24A1 transcript levels in mouse ear epidermis after topical treatment (Q-RT-PCR); type: in vivo; conditions: mouse ears, FIG. 10
Description: as §1

CC1(C)O[C@@H]2C[C@H]3[C@@H]4C[C@H](F)C5=CC(=O)C=C[C@]5(C)[C@@]4(F)[C@@H](O)C[C@]3(C)[C@]2(C(=O)CO)O1 [FA, fluocinolone acetonide]
luciferase expression in absence of IR1 nGRE [1]: did not affect
expression of GPX3 gene [2]: enhanced
reporter genes containing the IR1 nGRE DBS of various genes ([3]; 6 hours, FIG. 13): induces repression
repressing activity with mutant IR1 nGRE to which recombinant GR does not bind ([3]; FA): no FA-inducible repressing activity
basal and VDRE-mediated VitD3-induced luciferase expression in presence of IR1 nGRE ([3]; pGL3(VDRE) IR1 nGRE, FA addition, FIG. 11): decreased expression
change in basal and VitD3-induced luciferase activity for IR3, IR4 and IR5 nGREs ([3]; upon FA addition): no significant change
decrease in basal and VitD3-induced luciferase activity for IR1 and IR2 compared with IR0 nGRE ([3]; upon FA addition): stronger
effect on MC-dependent expression of the CYP24A1 gene [4]: no effect
